For this assay, the target named is S1P5 (Homo sapiens, UniProt Q9H228). Briefly: [35S]-GTPγS binding assay (S1P5 agonism), CHO cell membranes. As to conditions: membranes of CHO cells expressing recombinant S1P5 receptors, measure of S1P5 agonism. Format: biochemical. As for the experimental part: CHO cells expressing recombinant S1P5 receptors were cultured in 500 cm^2 culture trays and, once confluent, rinsed and detached with cell-lifting buffer (10 mM HEPES, 154 mM NaCl, 6.85 mM EDTA, pH 7.4). Cells were then pelleted by centrifugation, resuspended, and homogenized in membrane preparation buffer (10 mM HEPES and 10 mM EDTA, pH 7.4) using a Polytron PT 1200E homogenizer (Kinematica, Luzern, Switzerland). Cellular proteins were pelleted by centrifugation at 48,000×g at 4° C. for 30 minutes. The resulting supernatant was discarded, and the pellet was re-suspended again in membrane preparation buffer, homogenized for a second time, and then centrifuged again as described above. The final cellular protein pellet was suspended in ice cold resuspension buffer (10 mM HEPES and 0.1 mM EDTA, pH 7.4), divided into aliquots, and stored at −80° C. until use.
Functional binding assays for [^35S]-GTPγS were performed in 96-well non-binding surface plates with a final volume of 200 μL. The test compounds were serially diluted in DMSO and added to assay plates using a Tecan D300E digital printer with a total volume of […]. The control sphingosine-1-phosphate (S1P) was prepared separately by preparing a 400 μM stock solution from a 100 nmol pellet of S1P in 10 mM Na2CO3 with 2% […]. The serial dilution of S1P was done using complete assay buffer (20 mM HEPES, 10 mM MgCl2, 100 mM NaCl, 1 mM EDTA, 0.1% fatty acid free bovine serum albumin (BSA), and 30 μg/mL saponin, pH 7.4) and transferred to wells already containing 0.4 μL DMSO. All the wells were then loaded to a total volume of 40 μL of complete assay buffer, except the non-specific binding (NSB) wells. For NSB wells, 40 μL/well of 50 μM GTPγS (Sigma Aldrich, cat #G8634, St. Louis, MO) was added to wells containing 0.4 μL of DMSO. The assay was started by the addition of 120 μL/well of CHO-SlP receptor membrane solution containing 40 μg/mL of membrane protein, 16.67 μM guanosine diphosphate (GDP; Sigma Aldrich, cat #G7127, St. Louis, MO), and 2.5 mg/mL of WGA PVT SPA beads in complete buffer. Assay plates were then sealed and incubated at room temperature with gentle agitation for 30 minutes. Next, 40 µL/well of 1 nM of [^35S]-GTPγS (PerkinElmer, cat #NEG030X25OUC, Waltham, MA) in basic assay buffer (20 mM HEPES, 10 mM MgCl2, 100 mM NaCl, and 1 mM EDTA, pH7.4) was added to the assay plates to yield a final concentration of 200 pM and the plates were further incubated for 40 minutes at room temperature with gentle agitation. The assay was terminated by centrifugation of the plates at 1000 rpm for 3 minutes using an Eppendorf 5810R centrifuge (Eppendorf, Hamburg, Germany) and G protein bound radioactivity was quantitated using a MicroBeta2 microplate scintillation counter (PerkinElmer, Waltham, MA). As G protein bound radioactivity directly correlates to receptor activation and coupling to the G protein, this assay is a measure of S1P5 agonism.
(GTPγS is a poorly hydrolysed GTP analogue; its binding reports G protein activation.)

Bounds are passed on as bounds.

Sequence of S1P5 (Q9H228 whole entry, species assumed): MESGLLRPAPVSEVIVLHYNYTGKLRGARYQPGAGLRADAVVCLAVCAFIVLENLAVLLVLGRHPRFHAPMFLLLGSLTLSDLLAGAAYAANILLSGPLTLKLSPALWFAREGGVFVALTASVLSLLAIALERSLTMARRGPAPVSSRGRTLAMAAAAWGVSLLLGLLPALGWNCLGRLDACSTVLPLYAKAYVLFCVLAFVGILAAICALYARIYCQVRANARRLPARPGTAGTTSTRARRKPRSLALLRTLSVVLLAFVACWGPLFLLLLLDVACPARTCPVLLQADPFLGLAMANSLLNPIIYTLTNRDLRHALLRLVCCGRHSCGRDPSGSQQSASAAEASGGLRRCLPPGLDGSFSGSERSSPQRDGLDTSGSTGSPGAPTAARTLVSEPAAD

`O=C(O)[C@@H]1[C@@H]2CN(C3CCc4cc(OCc5c(Cl)cccc5Cl)ccc43)C[C@@H]21` (stereo partly drawn) [Compound 23, (1R,5S,6s)-3-(5-((2,6-dichlorobenzyl)oxy)-2,3-dihydro-1H-inden-1-yl)-3-azabicyclo[3.1.0]hexane-6-carboxylic acid]: the EC50 (commonly the midpoint of the concentration-response curve) was in the range of 1 to 10 nM.

As for `O=C(O)C1CN(C2CCc3cc(OCc4cc(F)ccc4F)ccc32)C1` (stereo not shown) [Compound 15, 1-(5-((2,5-difluorobenzyl)oxy)-2,3-dihydro-1H-inden-1-yl)azetidine-3-carboxylic acid], the EC50 lay within 10 to 100 nM.

In the case of `O=C(O)C1CN(C2CCc3cc(OCc4ccc(F)cc4F)ccc32)C1` (stereo not shown) [Compound 14, 1-(5-((2,4-difluorobenzyl)oxy)-2,3-dihydro-1H-inden-1-yl)azetidine-3-carboxylic acid], the EC50 lay within 10 to 100 nM.

Take `O=C(O)C1CCN(C2CCc3cc(OCc4cccc(C(F)(F)F)c4)ccc32)CC1` (single isomer, unassigned) [Compound 26b, 1-(5-((3-(trifluoromethyl)benzyl)oxy)-2,3-dihydro-1H-inden-1-yl)piperidine-4-carboxylic acid]: the EC50 was in the range of 100 to 1000 nM.

For the compound `CC(C)Oc1ccc(COc2ccc3c(c2)CCC3N2CC(C(=O)O)C2)cc1C(F)(F)F` (stereo not shown) [Compound 5, 1-(5-((4-isopropoxy-3-(trifluoromethyl)benzyl)oxy)-2,3-dihydro-1H-inden-1-yl)azetidine-3-carboxylic acid], the EC50 was in the range of 1 to 10 nM.

Turning to `O=C(O)C1CCN(C2CCc3cc(OCc4cccc(C(F)(F)F)c4)ccc32)CC1` (single isomer, unassigned) [Compound 26a, 1-(5-((3-(trifluoromethyl)benzyl)oxy)-2,3-dihydro-1H-inden-1-yl)piperidine-4-carboxylic acid], the concentration for a half-maximal effect (EC50) is 10 to 100 nM.

On to `O=C(O)C1CN(C2CCc3cc(OCc4ccc(C5CC5)cc4Cl)ccc32)C1` (stereo not shown) [Compound 8, 1-(5-((2-chloro-4-cyclopropylbenzyl)oxy)-2,3-dihydro-1H-inden-1-yl)azetidine-3-carboxylic acid], for which the concentration giving a half-maximal response (EC50) was in the range of 10 to 100 nM.

As to `O=C(O)[C@H]1[C@@H]2CN(C3CCc4cc(OCc5c(Cl)cccc5Cl)ccc43)C[C@@H]21` (stereo partly drawn) [Compound 22, (1R,5S,6r)-3-(5-((2,6-dichlorobenzyl)oxy)-2,3-dihydro-1H-inden-1-yl)-3-azabicyclo[3.1.0]hexane-6-carboxylic acid], the EC50 was in the range of 100 to 1000 nM.

In the case of `O=C(O)C1CCN(C2CCc3c2ccc(OCc2c(Cl)cccc2Cl)c3F)CC1` (stereo not shown) [Compound 34, 1-(5-((2,6-dichlorobenzyl)oxy)-4-fluoro-2,3-dihydro-1H-inden-1-yl)piperidine-4-carboxylic acid], the concentration for a half-maximal effect (EC50) is at most 1 nM.

Turning to `Cc1ccc(COc2ccc3c(c2)CCC3N2CC(C(=O)O)C2)cc1C(F)(F)F` (stereo not shown) [Compound 2, 1-(5-((4-methyl-3-(trifluoromethyl)benzyl)oxy)-2,3-dihydro-1H-inden-1-yl)azetidine-3-carboxylic acid], the half-maximal effective concentration (EC50) was 10 to 100 nM.
